Results on two compounds are retold here after article PMC9916658, “Design and Synthesis of New Quinazolin-4-one Derivatives with Negative mGlu7 Receptor Modulation Activity and Antipsychotic-Like Properties” (International Journal of Molecular Sciences, 2023).

In one data set the target is T1, CYP3A4 (Homo sapiens, UniProt P08684).
T1 construct: purchased BD Biosciences
Description: CYP inhibition assay, recombinant enzyme, fluorescence. In kind it is in vitro ADME. Conditions: test concentrations 1.1, 3.3 and 10 μM; read-out: Cytochrome P450 3A4 IC50. The procedure: CYP inhibition was performed with the recombinant enzymes CYP1A2, CYP2B6, CYP2C9, CYP2C19, CYP2D6, and CYP3A4 obtained from BD Biosciences. Compounds for CYP inhibition testing were prepared as 10 mM stock solutions in DMSO. Isoform-specific substrates were incubated at 37 °C individually with P450 enzymes (Table 5) and a range of test compound concentrations (1.1, 3.3 and 10 μM) in duplicate. Each isoform was tested separately with one reference compound, a known positive control inhibitor. […] At the end of the incubation, product formation was monitored with fluorescence detection.

Data set [1] deals with T2, recombinant human mGlu7 receptor (Homo sapiens, UniProt Q14831).
T2 construct: expressed in transfected cells; host or cells: T-REx 293 (tetracycline-inducible)
Description: NAM mGlu7 activity, forskolin-induced cAMP (HTRF) in T-REx 293 cell line. In kind it is cell-based. Particulars: T-REx 293 cells expressing human mGlu7; 5 µM LSP4-2022 (EC80), 5 µM forskolin.

The next data set addresses T3, CYP2B6 (Homo sapiens, UniProt P20813).
T3 construct: purchased BD Biosciences
T3 sequence (P20813 1-491): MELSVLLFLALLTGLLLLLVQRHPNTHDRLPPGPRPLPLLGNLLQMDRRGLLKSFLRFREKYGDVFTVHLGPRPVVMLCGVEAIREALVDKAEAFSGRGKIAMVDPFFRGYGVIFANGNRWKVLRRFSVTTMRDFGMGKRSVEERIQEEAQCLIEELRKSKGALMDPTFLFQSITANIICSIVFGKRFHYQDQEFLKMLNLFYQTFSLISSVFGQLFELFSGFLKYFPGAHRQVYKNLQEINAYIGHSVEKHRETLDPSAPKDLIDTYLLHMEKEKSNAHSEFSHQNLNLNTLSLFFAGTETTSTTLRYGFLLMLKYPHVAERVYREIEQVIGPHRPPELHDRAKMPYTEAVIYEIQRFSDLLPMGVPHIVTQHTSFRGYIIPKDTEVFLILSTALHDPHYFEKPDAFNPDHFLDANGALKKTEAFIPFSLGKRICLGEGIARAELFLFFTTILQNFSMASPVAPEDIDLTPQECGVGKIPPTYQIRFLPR
Description: CYP inhibition assay, recombinant enzyme, fluorescence. In kind it is in vitro ADME. Particulars: test concentrations 1.1, 3.3 and 10 μM; read-out: Cytochrome P450 2B6 IC50. On the procedure:
(§1) CYP inhibition was performed with the recombinant enzymes CYP1A2, CYP2B6, CYP2C9, CYP2C19, CYP2D6, and CYP3A4 obtained from BD Biosciences. Compounds for CYP inhibition testing were prepared as 10 mM stock solutions in DMSO. Isoform-specific substrates were incubated at 37 °C individually with P450 enzymes (Table 5) and a range of test compound concentrations (1.1, 3.3 and 10 μM) in duplicate. Each isoform was tested separately with one reference compound, a known positive control inhibitor. During preincubation, the 96-well black plates were scanned with a fluorescence plate reader to eliminate false results originating from the autofluorescence of the test compounds. At the end of the incubation, product formation was monitored with fluorescence detection. A decrease in the formation of the metabolite compared to the “no inhibition” control samples was used to calculate the IC50 value.

A further data set concerns the target T4, CYP2C19 (Homo sapiens, UniProt P33261).
T4 construct: purchased BD Biosciences
Described as above. Particulars: test concentrations 1.1, 3.3 and 10 μM; read-out: Cytochrome P450 2C19 IC50. The data set is classed as in vitro ADME. The procedure: as §1

Another data set addresses T5, CYP2D6 (Homo sapiens, UniProt P10635).
T5 construct: purchased BD Biosciences
The description is as above. In kind it is in vitro ADME. Particulars: test concentrations 1.1, 3.3 and 10 μM; read-out: Cytochrome P450 2D6 IC50. On the procedure: as §1

A further data set deals with T6, CYP1A2 (Homo sapiens, UniProt P05177).
T6 construct: purchased BD Biosciences
T6 sequence (P05177 1-516): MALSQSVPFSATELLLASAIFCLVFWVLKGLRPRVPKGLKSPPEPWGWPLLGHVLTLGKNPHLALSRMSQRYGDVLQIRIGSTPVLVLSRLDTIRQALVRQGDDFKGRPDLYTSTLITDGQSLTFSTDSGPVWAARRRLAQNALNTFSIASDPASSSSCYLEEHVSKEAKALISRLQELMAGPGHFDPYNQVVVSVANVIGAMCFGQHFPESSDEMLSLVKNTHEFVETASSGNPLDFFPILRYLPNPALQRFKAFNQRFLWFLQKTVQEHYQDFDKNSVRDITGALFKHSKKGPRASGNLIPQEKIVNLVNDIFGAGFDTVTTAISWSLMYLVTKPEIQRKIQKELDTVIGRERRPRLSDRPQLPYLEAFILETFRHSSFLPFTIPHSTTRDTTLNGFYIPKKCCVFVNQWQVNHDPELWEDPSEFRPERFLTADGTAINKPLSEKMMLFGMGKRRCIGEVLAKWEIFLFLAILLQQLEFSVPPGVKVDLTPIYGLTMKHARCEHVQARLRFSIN
The data set is described as above. In kind it is in vitro ADME. Particulars: test concentrations 1.1, 3.3 and 10 μM; read-out: Cytochrome P450 1A2 IC50. On the procedure:
as §1

A further data set has as its system choice accuracy in rats. In words: Spatial delayed alternation test. The data set is classed as in vivo.
Data set [2] relates to recognition index in mice. In words: Novel object recognition test. The data set is classed as in vivo. On the procedure: This procedure was adapted from and performed as described in a previous paper. Habituation, training and test trials were performed in a black plastic rectangular arena (40 × 30 × 35 cm) illuminated with a light intensity of 335 lux. During the habituation trial (2 consecutive days), each animal was allowed to explore the arena for 10 min. The next day, during the training trial (T1), mice were placed in the arena and were presented with two identical objects (red glass cylinders; 6.5 cm in diameter and 4.5 cm high) for 5 min. After 1 h, animals were placed back into the arena for a 5 min test trial, during which one of the previously presented familiar objects was replaced with a novel object (a transparent glass elongated sphere-like object with an orange cap; 5.5 cm in diameter and 8.5 cm high). Time spent exploring (i.e., sniffing or touching) the familiar (Tfamiliar) and novel (Tnovel) objects was measured by a trained observer, and the recognition index (%) was calculated for each mouse [(Tnovel − Tfamiliar)/(Tfamiliar + Tnovel)] “×” 100.

T2 sequence (Q14831 35-915): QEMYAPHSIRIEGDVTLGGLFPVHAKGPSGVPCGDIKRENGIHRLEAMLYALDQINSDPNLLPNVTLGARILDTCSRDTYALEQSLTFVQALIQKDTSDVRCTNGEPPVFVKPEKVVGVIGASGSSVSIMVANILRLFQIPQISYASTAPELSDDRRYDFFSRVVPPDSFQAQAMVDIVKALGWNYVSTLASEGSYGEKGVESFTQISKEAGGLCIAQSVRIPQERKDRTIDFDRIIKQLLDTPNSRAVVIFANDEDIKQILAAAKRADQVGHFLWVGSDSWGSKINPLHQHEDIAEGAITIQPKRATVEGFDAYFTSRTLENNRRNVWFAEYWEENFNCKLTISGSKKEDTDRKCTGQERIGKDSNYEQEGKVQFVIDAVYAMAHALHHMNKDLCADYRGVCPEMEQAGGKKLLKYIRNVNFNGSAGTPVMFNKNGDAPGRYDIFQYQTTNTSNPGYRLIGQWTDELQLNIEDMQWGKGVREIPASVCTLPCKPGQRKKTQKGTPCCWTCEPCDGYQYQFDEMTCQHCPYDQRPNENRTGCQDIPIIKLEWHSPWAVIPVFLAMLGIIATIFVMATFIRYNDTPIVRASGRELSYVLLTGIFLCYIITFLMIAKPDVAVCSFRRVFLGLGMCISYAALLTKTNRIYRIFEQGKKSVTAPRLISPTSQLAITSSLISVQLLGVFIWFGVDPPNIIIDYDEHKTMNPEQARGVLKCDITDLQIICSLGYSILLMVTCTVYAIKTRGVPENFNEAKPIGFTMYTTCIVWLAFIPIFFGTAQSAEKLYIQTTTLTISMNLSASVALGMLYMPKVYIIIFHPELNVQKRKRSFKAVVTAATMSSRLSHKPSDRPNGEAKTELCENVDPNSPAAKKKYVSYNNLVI
T1 sequence (P08684 whole entry): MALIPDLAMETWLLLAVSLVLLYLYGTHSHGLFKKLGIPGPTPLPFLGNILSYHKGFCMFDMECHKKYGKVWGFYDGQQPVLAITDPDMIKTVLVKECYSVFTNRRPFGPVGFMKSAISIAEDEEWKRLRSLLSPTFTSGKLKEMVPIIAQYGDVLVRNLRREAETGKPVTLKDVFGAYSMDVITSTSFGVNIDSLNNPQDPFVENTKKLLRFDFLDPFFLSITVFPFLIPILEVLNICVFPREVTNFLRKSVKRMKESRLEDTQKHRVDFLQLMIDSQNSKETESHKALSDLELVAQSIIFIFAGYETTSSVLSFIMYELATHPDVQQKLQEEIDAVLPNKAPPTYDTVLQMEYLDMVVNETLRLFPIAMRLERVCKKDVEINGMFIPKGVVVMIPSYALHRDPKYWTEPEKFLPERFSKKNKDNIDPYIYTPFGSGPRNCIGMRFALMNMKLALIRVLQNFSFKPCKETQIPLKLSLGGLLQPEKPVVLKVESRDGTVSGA
T5 sequence (P10635 whole entry): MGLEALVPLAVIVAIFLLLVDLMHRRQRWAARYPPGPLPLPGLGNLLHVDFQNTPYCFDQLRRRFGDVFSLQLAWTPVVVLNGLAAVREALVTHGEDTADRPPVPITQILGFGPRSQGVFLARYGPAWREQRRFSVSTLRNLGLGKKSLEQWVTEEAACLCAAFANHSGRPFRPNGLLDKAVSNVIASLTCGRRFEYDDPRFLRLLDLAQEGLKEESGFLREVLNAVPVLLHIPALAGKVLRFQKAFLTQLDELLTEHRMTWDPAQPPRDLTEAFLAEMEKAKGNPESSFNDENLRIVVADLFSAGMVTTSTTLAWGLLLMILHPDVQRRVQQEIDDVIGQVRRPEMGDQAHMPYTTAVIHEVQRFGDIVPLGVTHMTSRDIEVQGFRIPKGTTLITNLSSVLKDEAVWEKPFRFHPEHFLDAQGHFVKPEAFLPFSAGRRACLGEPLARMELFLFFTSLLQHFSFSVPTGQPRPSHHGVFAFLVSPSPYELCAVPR
T4 sequence (P33261 whole entry): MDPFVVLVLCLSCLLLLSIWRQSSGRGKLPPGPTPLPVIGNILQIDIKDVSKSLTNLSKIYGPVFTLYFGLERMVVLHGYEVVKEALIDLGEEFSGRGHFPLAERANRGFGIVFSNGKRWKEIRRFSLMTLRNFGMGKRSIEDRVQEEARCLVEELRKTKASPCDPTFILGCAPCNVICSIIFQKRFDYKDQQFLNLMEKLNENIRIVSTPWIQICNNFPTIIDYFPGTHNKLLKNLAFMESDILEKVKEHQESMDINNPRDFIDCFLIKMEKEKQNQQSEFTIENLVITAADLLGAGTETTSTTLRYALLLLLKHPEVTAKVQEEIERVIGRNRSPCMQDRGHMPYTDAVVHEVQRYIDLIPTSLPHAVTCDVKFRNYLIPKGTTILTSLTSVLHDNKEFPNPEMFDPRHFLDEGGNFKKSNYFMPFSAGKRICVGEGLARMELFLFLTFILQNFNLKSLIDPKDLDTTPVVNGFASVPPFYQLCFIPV

In general, IC50 refers to the point on the concentration scale where inhibition reaches its midpoint. `Cn1c(-c2ccccc2Cl)nc2ccc(-c3ccccc3)cc2c1=O` [ALX-065, 2-(2-chlorophenyl)-3-methyl-6-phenylquinazolin-4(3H)-one]: the IC50 at CYP3A4 was over 10 µM; in data set [1], 4.65 ± 3.46 µM; on CYP2B6, over 10 µM; on CYP2C19, 1.1 to 3.3 µM; on CYP2D6, over 10 µM; at CYP1A2, 1.1 to 3.3 µM.
Turning to `COc1cccc(-c2ccc3nc(-c4ccccc4Cl)n(C)c(=O)c3c2)c1OC` [ALX-171, 2-(2-chlorophenyl)-6-(2,3-dimethoxyphenyl)-3-methylquinazolin-4(3H)-one], the IC50 on CYP3A4 is 3.3 to 10 µM; in data set [1] it was 6.14 ± 3.42 µM; on CYP2B6, over 10 µM; on CYP2C19 it was 3.3 to 10 µM; at CYP2D6, over 10 µM; on CYP1A2 it was 3.3 to 10 µM. Besides, in the data set on choice accuracy in rats, the “choice accuracy, compound administered alone” value is “no negative effect”. Moreover, the “MK-801-induced disruptions in the number of alternations” value in the data set on choice accuracy in rats (highest dose tested 5 mg/kg) is on record as “reversed”. Further, the “MK-801-induced decrease in the recognition index (NOR)” value in data set [2] (mice, 1, 2.5, and 5 mg/kg) is listed as “ameliorated”. For the same compound, the “recognition index, compound alone (NOR)” value in data set [2] (naïve mice) is “no significant impact”.
